For two compounds, Km results are on record in PMC6011838, “Transcriptome analysis and anaerobic C4‐dicarboxylate transport in Actinobacillus succinogenes” (MicrobiologyOpen, 2017).

The test addresses T1, Asuc_1999 (Actinobacillus succinogenes, UniProt A6VQU8).
T1 construct: untagged gene in pBAD30 derivative pMB64, expressed in E. coli IMW529 (deficient in anaerobic fumarate transport); 555 amino acids; cell suspension uptake
The test is described as follows: […] uptake, filtration assay, E. coli cell suspension. Conditions: anaerobic; phosphate buffer pH 7, 1 mmol/L MgSO4; 37°C; 1 min uptake; 20 mmol/L lactose preincubation; labelled compound. It counts as cell-based.

On to `O=C(O)/C=C/C(=O)O` [fumarate], for which the Km (usually the substrate concentration at which the rate is half of its maximum) stood at 452 µM.

For `O=C(O)CCC(=O)O` [succinate], the Km came out at 364 µM.
